The assay relates to Akt1 phosphorylation (S473) in H4IIE cells. The assay can be described thus: Akt1 activation, phospho-Akt1 (Ser473) ELISA. It counts as cell-based. As to conditions: FIG. 10c. As for the experimental part:
The insulin receptor autophosphorylation was assessed through the use of an enzyme-linked immunosorbant assay (ELISA). […] Finally, to probe the downstream signaling resulting from insulin binding, a second ELISA experiment was performed to monitor stimulation of Akt phosphorylation (S473).
Confluent H4IIE cells were serum deprived for 4 hours in […] β-mercaptoethanol and 0.25% bovine serum albumin. […] Cells were lysed in 0.5 ml 1× Cell Lysis Buffer (Cell Signaling, #7160) and cells broken open by brief sonication. Lysates were collected and centrifuged for 10 minutes at 14,000 rpm. Supernatants were recovered, diluted 1:1 with Sample Diluent, and phospho-Akt1 was quantitated in 100 μL of each diluted supernatant using the PathScan phospho-Akt1 (Ser473) ELISA (Cell Signaling, #7160).
For orientation: ELISA stands for enzyme-linked immunosorbent assay.

We go through 1 substance from patent publication US20120100071A1, “SYNTHESIS AND USE OF RADIOLABELLED INSULIN ANALOGUES” (priority 2009, published 2012).

On to “B^1-[Re(CO)3{bis(2-pyridylmethyl)pentanoyl-6-aminohexanoyl)}]insulin [compound 6]”, for which the “Akt phosphorylation (S473) response compared to unmodified human insulin” value was “not significantly different”.
